Assay [1] has as its target T1, moesin FERM domain (Homo sapiens, UniProt P26038).
T1 construct: pGEX4T Moesin (P26038) FERM was a gift from Vijaya Ramesh (Addgene plasmid # 1163); GST (N, cleaved yes); made in house; host or cells: E. coli BL21(DE3)
The assay is described as follows: Competitive FP assay, unlabeled peptide outcompetes FITC-labeled probe. Format: binding. The protocol: (§1) 25 μL of this premix was added to 25 μL of titrated target peptide. FP signals were determined as described earlier. […] All measurements were performed at least in triplicates.

A further assay concerns the target T2, merlin FERM domain (Homo sapiens, UniProt P35240).
T2 construct: human merlin FERM (P35240; amino acids 22–312); His-GST (N, cleaved yes); made in house; host or cells: E. coli BL21(DE3)
T2 sequence (P35240 22-312): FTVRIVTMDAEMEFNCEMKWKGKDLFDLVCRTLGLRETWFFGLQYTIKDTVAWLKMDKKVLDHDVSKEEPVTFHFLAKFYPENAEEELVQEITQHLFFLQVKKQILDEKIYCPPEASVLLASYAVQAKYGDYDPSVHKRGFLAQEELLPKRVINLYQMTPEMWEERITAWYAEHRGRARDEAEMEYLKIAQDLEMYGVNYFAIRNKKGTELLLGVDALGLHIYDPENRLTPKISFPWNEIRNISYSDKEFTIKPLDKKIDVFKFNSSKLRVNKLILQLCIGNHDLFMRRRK
The assay is described as follows: Direct binding fluorescence polarization (FP) assay, FITC-labeled probe peptides. Conditions: FITC-labeled probe peptide 5 nM titrated with FERM domain, 20 mM HEPES pH 7.4, 150 mM NaCl, 0.05% Tween-20, 3 mM DTT, quadratic 1:1 fit, n = 3 technical repeats, N.B. within the concentration range tested. The protocol: (§2) For fluorescence polarization (FP) experiments of merlin FERM, the GST tag was removed using HRV3C protease by incubating the enzyme (100 units/10 mg protein) with protein overnight at 4 °C in the dialysis buffer (20 mM HEPES, pH 7.4, 150 mM NaCl, 0.05% Tween-20, and 3 mM DTT). The following day, the cleaved GST and the protease were removed using reverse Ni-IMAC, and the protein was concentrated to the working concentration. For FP experiments using moesin FERM, thrombin (Sigma) was used to cleave the GST tag from moesin FERM domain on GSH sepharose beads (Cytiva) and incubated overnight at 4 °C under gentle rotation. Next day, the beads were collected by gentle centrifugation, while the supernatant containing thrombin and moesin FERM domain was passed through a HiTrap benzamidine column (Cytiva). The protein was then eluted using a high salt (0.7–1 M NaCl) concentration. The buffer was then exchanged using the PD-10 desalting column (Cytiva) into FP buffer (20 mM HEPES, pH 7.4, 150 mM NaCl, 0.05% Tween-20, and 3 mM DTT).
(§3) Synthetic peptides were obtained at 95% purity (GeneCust) and were dissolved in FP buffer (described earlier). To obtain direct binding saturation data, a dilution series of moesin FERM domain was prepared using the FP buffer, and then an equal volume of 10 nM FITC-labeled peptide was added to each sample. After mixing, the FP signals were recorded using SpectraMax iD5 (Molecular Devices). Data were analyzed with GraphPad Prism version 7.0.0 for MacOS (GraphPad Software, San Diego, California USA). A quadratic equation for equilibrium binding[37] was used to fit the obtained data. [drawing 1] where pept indicates the probe peptide concentration (5 nM), X indicates the protein concentration, the constant A being the signal amplitude divided by probe peptide concentration, and B is the plateau value. Direct binding experiments were performed and analyzed the same way in the presence of saturating concentration of unlabeled peptides.

Assay [2] concerns the target T1, moesin FERM domain. The description is as above. The note with it: FITC-labeled probe peptide 5 nM titrated with FERM domain, 20 mM HEPES pH 7.4, 150 mM NaCl, 0.05% Tween-20, 3 mM DTT, quadratic 1:1 fit, n = 3 technical repeats. The method, then:
as §2, §3

In assay [3] the target is T1, moesin FERM domain. The assay is described as follows: Direct binding FP in the presence of saturating concentration of unlabeled competing peptide. The protocol: as §3
We next explored the interplay between the F3a and F3b ligands by determining the affinity of FITC-labeled model peptides in the presence of high concentrations of the competing ligands (Figure 6A,B). […] The asymmetric competition could potentially be explained by an allosteric model where binding to the F3a site induces a conformational change of the protein that reduces the affinity for F3b ligands.

In another assay the target is T3, radixin FERM domain (Homo sapiens, UniProt P35241).
T3 construct: radixin FERM (P35241; 5–295) domains were commercially synthesized; His-GST (N); made in house; host or cells: E. coli BL21(DE3)
Description: Competitive FP assay, unlabeled peptide outcompetes FITC-labeled probe. Format: binding. Conditions: competition FP, unlabeled peptide vs FITC-KIRREL3 probe; at least triplicates. The method, then:
as §1

A further assay has as its target T4, moesin FERM M285A/H288A (Homo sapiens, UniProt P26038, H288A/M285A).
T4 construct: we generated a mutant moesin FERM domain (M285A and H288A); GST (N, cleaved yes); made in house; host or cells: E. coli BL21(DE3)
The assay is described as follows: Direct binding FP assay with F3b-site mutant. The note with it: direct binding of FITC-labeled probe; Table S7. From the text: Synthetic genes encoding for human merlin FERM (P35240; amino acids 22–312) and radixin FERM (P35241; 5–295) domains were commercially synthesized (ThermoFisher) and cloned into pETM33 using NcoI and EcoRI restriction sites. pGEX4T Moesin (P26038) FERM was a gift from Vijaya Ramesh (Addgene plasmid # 1163[27]). pGEX4T1 Ezrin (P15311) FERM domain was a kind gift from Volker Gerke.[28] Human NOP53-HA-pcDNA was a kind gift from Ronit Sarid.[29] The NOP53 gene was polymerase chain reaction (PCR)-amplified and cloned into CMV10 using HindIII and EcoRI. RRBP1-GFP was kindly provided by Alexander F. Palazzo.[30] HA-HIF1-alpha-pcDNA3 was a gift from William Kaelin (Addgene plasmid # 18949[31]). pcDNA3 LATS1 was a gift from Erich Nigg (Addgene plasmid # 41156[32]). […]
Synthetic peptides were obtained at 95% purity (GeneCust) and were dissolved in FP buffer (described earlier). […] After mixing, the FP signals were recorded using SpectraMax iD5 (Molecular Devices). Data were analyzed with GraphPad Prism version 7.0.0 for MacOS (GraphPad Software, San Diego, California USA). […] Direct binding experiments were performed and analyzed the same way in the presence of saturating concentration of unlabeled peptides.
To validate the models on the receptor side, we generated a mutant moesin FERM domain (M285A and H288A) and determined the effect on the affinity. […]

Where [4] appears, read: competitive FP using WT FITC-labeled ZNF622 as probe, Figure 5D, read-out: KD' (moesin FERM, ZNF622 peptide variants).
[5] abbreviates: direct binding FP in presence of excess unlabeled KIRREL3 (80 μM), Figure 6E, read-out: KD of FITC-labeled probe for moesin FERM, saturating peptide KIRREL3.
Where [6] appears, read: direct binding FP in presence of excess unlabeled TBX4 (80 μM), Figure 6F, read-out: KD of FITC-labeled probe for moesin FERM, saturating peptide TBX4.
The mark [7] stands for this setting: competitive FP using FITC-KIRREL3_637–652 as probe, Figure 4G, read-out: KD' (moesin FERM, KIRREL3 and TBX4 peptide variants).
The mark [8] stands for this setting: moesin FERM, unlabeled peptide at about 100 times KD (80–150 μM).

This note sets out measurements from PMC10249358, “Elucidation of Short Linear Motif-Based Interactions of the FERM Domains of Ezrin, Radixin, Moesin, and Merlin” (Biochemistry, 2023).

No end group written: not given here.

T1 sequence (P26038 2-295 limits assumed): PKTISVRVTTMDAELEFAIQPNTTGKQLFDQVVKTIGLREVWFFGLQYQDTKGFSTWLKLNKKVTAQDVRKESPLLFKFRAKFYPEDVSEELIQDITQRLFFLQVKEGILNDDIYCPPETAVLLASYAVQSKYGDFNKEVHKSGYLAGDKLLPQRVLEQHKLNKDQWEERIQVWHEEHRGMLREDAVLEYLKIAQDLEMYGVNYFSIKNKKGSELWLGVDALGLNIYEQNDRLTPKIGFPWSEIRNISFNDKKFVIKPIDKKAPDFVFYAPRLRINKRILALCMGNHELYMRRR
T4 sequence (P26038 2-295 M285A/H288A limits assumed): as the sequence (P26038 2-295 limits assumed) above, with M284A, H287A counted along it
T3 sequence (P35241 5-295): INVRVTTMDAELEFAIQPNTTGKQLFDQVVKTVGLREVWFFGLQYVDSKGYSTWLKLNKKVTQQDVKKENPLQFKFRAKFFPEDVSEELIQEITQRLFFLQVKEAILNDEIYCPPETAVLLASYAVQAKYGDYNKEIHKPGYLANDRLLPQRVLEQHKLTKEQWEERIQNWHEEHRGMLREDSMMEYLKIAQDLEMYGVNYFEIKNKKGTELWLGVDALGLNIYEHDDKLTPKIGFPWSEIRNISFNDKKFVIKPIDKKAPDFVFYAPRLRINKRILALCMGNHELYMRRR

Turning to LEAADFYDFRSSYPDH, on moesin FERM domain [1] (setting [4]), the Kd was determined as 2300 ± 100 nM.
Turning to LEFADFYAFRSSYPDH, the Kd at moesin FERM domain [1] (setting [4]) stood at 50000 ± 2000 nM.
Take YYSVNTFKEHHSTPTI [KIRREL3_637–652]: at merlin FERM domain, the “KD, merlin FERM domain” value is recorded as “N.B”.
Regarding “APQMDWSKKNELFSNL [EBP50_343–358, reference compound]”, the values for the dissociation constant Kd at moesin FERM domain [2], at moesin FERM domain [3] (setting [5]) and at moesin FERM domain [3] (setting [6]) were 3000 ± 300 nM, 3300 ± 200 nM and 3400 ± 200 nM, respectively.
With TNGYYSANTFKEHHST, at moesin FERM domain [1] (setting [7]), the Kd was 50000 ± 6000 nM.
In the case of TNGAYSVNTFKEHHST, the Kd at moesin FERM domain [1] (setting [7]) was 110 ± 10 nM.
With TNGYASVNTFKEHHST, at moesin FERM domain [1] (setting [7]), the Kd is 58000 ± 5000 nM.
Turning to LYTLPDDSTHQLLQPH [BOC1000–1015], the Kd at radixin FERM domain came out at 17000 ± 2000 nM.
Regarding “THHKALQEIRNSLLPF [LATS1_73–88, reference compound]”, the Kd was found to be 1300 ± 100 nM on moesin FERM M285A/H288A and 1000 ± 100 nM at moesin FERM domain [2].
Regarding LEFADFYDFRSSAPDH, the Kd at moesin FERM domain [1] (setting [4]) stood at 2800 ± 100 nM.
As for TNGYYSVNTFKEHHST, on moesin FERM domain [1] (setting [7]), the Kd came to 100 ± 10 nM.
For LEFADFYDFRSSYPDH [ZNF622_341–356], the Kd amounted to 1300 ± 100 nM on moesin FERM M285A/H288A; 1000 ± 100 nM on moesin FERM domain [2]; 1400 ± 100 nM on moesin FERM domain [1] (setting [4]); 1400 ± 100 nM at moesin FERM domain [3] (setting [5]); 1300 ± 200 nM at moesin FERM domain [3] (setting [6]).
Take FYELAHQLPLPHNVSS [HIF1A37–52]: at moesin FERM domain [1] (competition FP, determined using FITC-ZNF622 as the probe peptide (footnote b), read-out: moesin KD′), the Kd is 3000 ± 400 nM.
ITGSYSVSESPFFSPI [MISP595–610]: on moesin FERM domain [1] (read-out: moesin KD′), the equilibrium dissociation constant (Kd) came to 2300 ± 100 nM.
In the case of LEFADAYDFRSSYPDH, at moesin FERM domain [1] (setting [4]), the Kd is 85000 ± 2000 nM.
As for SYSVQTMETVPYQPFP [TBX4_428–443], the “KD, merlin FERM domain” value at merlin FERM domain is “N.B”. Besides, the Kd on moesin FERM domain [1] (setting [7]) stood at 1000 ± 100 nM.
As to “KIRREL3_634–652: unlabeled F3b ligand used at 80 μM as saturating competitor; residue range as printed (TNGYYSVNTFKEHHSTPTI)”, in the assay with moesin FERM domain [3] (setting [8]), the “effect of excess unlabeled peptide on binding of FITC-EBP50 / FITC-ZNF622 to the F3a site” value is recorded as “not binding” and the “effect of excess unlabeled peptide on binding of FITC-KIRREL3 / FITC-TBX4 to the F3b site” value was “blocked binding”.

One may read the Kd as the concentration at which binding is half-saturated.
